In PubChem BioAssay (NCI):
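48-hour exposure; five concentrations; linearly interpolated endpoints. GI50: concentration for 50% inhibition of growth. TGI is the concentration that stops growth completely.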

Tests used:
Assay in all cases: NCI anticancer screen, dose series, 48 h
CAKI-1 renal = test system: CAKI-1 renal
RPMI-8226 leukemia = test system: RPMI-8226 leukemia
IGROV1 ovarian = test system: IGROV1 ovarian
SW-620 colon = test system: SW-620 colon
786-0 renal = test system: 786-0 renal
SF-268 CNS = test system: SF-268 CNS
A498 renal = test system: A498 renal
KM12 colon = test system: KM12 colon
HCT-15 colon = test system: HCT-15 colon
SK-OV-3 ovarian = test system: SK-OV-3 ovarian
MCF7 breast = test system: MCF7 breast
K-562 leukemia = test system: K-562 leukemia
RXF 393 renal = test system: RXF 393 renal
SK-MEL-5 melanoma = test system: SK-MEL-5 melanoma
UO-31 renal = test system: UO-31 renal
OVCAR-5 ovarian = test system: OVCAR-5 ovarian
COLO 205 colon = test system: COLO 205 colon
HL-60(TB) leukemia = test system: HL-60(TB) leukemia
SR leukemia = test system: SR leukemia
HS 578T breast = test system: HS 578T breast
NCI-H522 lung = test system: NCI-H522 lung
HCC-2998 colon = test system: HCC-2998 colon
SNB-19 CNS = test system: SNB-19 CNS
T-47D breast = test system: T-47D breast
OVCAR-8 ovarian = test system: OVCAR-8 ovarian
CCRF-CEM leukemia = test system: CCRF-CEM leukemia
SK-MEL-28 melanoma = test system: SK-MEL-28 melanoma
TK-10 renal = test system: TK-10 renal
EKVX NSCLC = test system: EKVX NSCLC
A549 NSCLC = test system: A549 NSCLC
NCI-H23 lung = test system: NCI-H23 lung
MDA-MB-435 = test system: MDA-MB-435
M14 melanoma = test system: M14 melanoma
UACC-62 melanoma = test system: UACC-62 melanoma
NCI-H460 lung = test system: NCI-H460 lung
NCI-H226 lung = test system: NCI-H226 lung
HOP-92 NSCLC = test system: HOP-92 NSCLC
MDA-MB-468 breast = test system: MDA-MB-468 breast
SK-MEL-2 melanoma = test system: SK-MEL-2 melanoma
NCI/ADR-RES ovarian = test system: NCI/ADR-RES ovarian
MDA-MB-231 breast = test system: MDA-MB-231 breast
DU-145 prostate = test system: DU-145 prostate
ACHN renal = test system: ACHN renal
LOX IMVI melanoma = test system: LOX IMVI melanoma
MALME-3M melanoma = test system: MALME-3M melanoma
SN12C renal = test system: SN12C renal
MOLT-4 leukemia = test system: MOLT-4 leukemia
HOP-62 NSCLC = test system: HOP-62 NSCLC
SF-539 CNS = test system: SF-539 CNS
BT-549 breast = test system: BT-549 breast
U251 CNS = test system: U251 CNS
HCT-116 colon = test system: HCT-116 colon
SNB-75 CNS = test system: SNB-75 CNS
HT29 colon = test system: HT29 colon
SF-295 CNS = test system: SF-295 CNS
PC-3 prostate = test system: PC-3 prostate
UACC-257 melanoma = test system: UACC-257 melanoma
OVCAR-4 ovarian = test system: OVCAR-4 ovarian
OVCAR-3 ovarian = test system: OVCAR-3 ovarian

Work on `O=C(NO)c1ccc(Cn2ccc3c(Nc4ccccc4)ncnc32)cc1` yielded a GI50 (CAKI-1 renal) of 2170 nM, a TGI (CAKI-1 renal) of 6.91 µM and a GI50 (RPMI-8226 leukemia) of 1100 nM. For the same compound, the TGI (RPMI-8226 leukemia) was over 29 µM, the GI50 (IGROV1 ovarian) was 2340 nM and the TGI (IGROV1 ovarian) was 6.22 µM. For the same compound, the GI50 (SW-620 colon) was 863 nM, the TGI (SW-620 colon) was 3.31 µM and the GI50 (786-0 renal) was 3.78 µM. It also gave a TGI (786-0 renal) of 8.97 µM, a GI50 (SF-268 CNS) of 4.06 µM and a TGI (SF-268 CNS) of 9.64 µM. For the same compound, the GI50 (A498 renal) was 1310 nM, the TGI (A498 renal) was 6.79 µM and the GI50 (KM12 colon) was 3.7 µM. For the same compound, the TGI (KM12 colon) was 10.9 µM, the GI50 (HCT-15 colon) was 3.59 µM and the TGI (HCT-15 colon) was 7.81 µM. The GI50 (SK-OV-3 ovarian) was 2000 nM, the TGI (SK-OV-3 ovarian) was 9.87 µM and the GI50 (MCF7 breast) was 3.8 µM. For the same compound, the TGI (MCF7 breast) was 12.4 µM, the GI50 (K-562 leukemia) was 1140 nM and the TGI (K-562 leukemia) was over 29 µM. It also gave a GI50 (RXF 393 renal) of 934 nM, a TGI (RXF 393 renal) of 4.02 µM and a GI50 (SK-MEL-5 melanoma) of 1060 nM. For the same compound, the TGI (SK-MEL-5 melanoma) was 4.05 µM, the GI50 (UO-31 renal) was 2420 nM and the TGI (UO-31 renal) was 6.38 µM. The GI50 (OVCAR-5 ovarian) was 1020 nM, the TGI (OVCAR-5 ovarian) was 5.07 µM and the GI50 (COLO 205 colon) was 1430 nM. The TGI (COLO 205 colon) was 5.73 µM, the GI50 (HL-60(TB) leukemia) was 984 nM and the TGI (HL-60(TB) leukemia) was 3.89 µM. It also gave a GI50 (SR leukemia) of 817 nM, a TGI (SR leukemia) of over 29 µM and a GI50 (HS 578T breast) of 1700 nM. The TGI (HS 578T breast) was 17.5 µM, the GI50 (NCI-H522 lung) was 1070 nM and the TGI (NCI-H522 lung) was 4.87 µM. The GI50 (HCC-2998 colon) was 2620 nM, the TGI (HCC-2998 colon) was 6.12 µM and the GI50 (SNB-19 CNS) was 3.26 µM. It also gave a TGI (SNB-19 CNS) of 7.51 µM, a GI50 (T-47D breast) of 2420 nM and a TGI (T-47D breast) of over 29 µM. It also gave a GI50 (OVCAR-8 ovarian) of 1290 nM, a TGI (OVCAR-8 ovarian) of 8.8 µM and a GI50 (CCRF-CEM leukemia) of 1410 nM. For the same compound, the TGI (CCRF-CEM leukemia) was over 29 µM, the GI50 (SK-MEL-28 melanoma) was 2040 nM and the TGI (SK-MEL-28 melanoma) was 6.29 µM. It also gave a GI50 (TK-10 renal) of 1420 nM, a TGI (TK-10 renal) of 12 µM and a GI50 (EKVX NSCLC) of 2750 nM. For the same compound, the TGI (EKVX NSCLC) was 6.9 µM, the GI50 (A549 NSCLC) was 3.1 µM and the TGI (A549 NSCLC) was 15.5 µM. For the same compound, the GI50 (NCI-H23 lung) was 1470 nM, the TGI (NCI-H23 lung) was 5.08 µM and the GI50 (MDA-MB-435) was 1220 nM. It also gave a TGI (MDA-MB-435) of 5.03 µM, a GI50 (M14 melanoma) of 2990 nM and a TGI (M14 melanoma) of 10.1 µM. The GI50 (UACC-62 melanoma) was 1040 nM, the TGI (UACC-62 melanoma) was 4.42 µM and the GI50 (NCI-H460 lung) was 1330 nM. It also gave a TGI (NCI-H460 lung) of 8.45 µM, a GI50 (NCI-H226 lung) of 3.88 µM and a TGI (NCI-H226 lung) of 16 µM. It also gave a GI50 (HOP-92 NSCLC) of 1740 nM, a TGI (HOP-92 NSCLC) of 7.35 µM and a GI50 (MDA-MB-468 breast) of 718 nM. The TGI (MDA-MB-468 breast) was 2760 nM, the GI50 (SK-MEL-2 melanoma) was 4.75 µM and the TGI (SK-MEL-2 melanoma) was 11.4 µM. For the same compound, the GI50 (NCI/ADR-RES ovarian) was 636 nM, the TGI (NCI/ADR-RES ovarian) was 2030 nM and the GI50 (MDA-MB-231 breast) was 1940 nM. It also gave a TGI (MDA-MB-231 breast) of 6.68 µM, a GI50 (DU-145 prostate) of 1410 nM and a TGI (DU-145 prostate) of over 29 µM. It also gave a GI50 (ACHN renal) of 1950 nM, a TGI (ACHN renal) of 5.92 µM and a GI50 (LOX IMVI melanoma) of 1780 nM. It also gave a TGI (LOX IMVI melanoma) of 5.44 µM, a GI50 (MALME-3M melanoma) of 869 nM and a TGI (MALME-3M melanoma) of 4.1 µM. It also gave a GI50 (SN12C renal) of 3.29 µM, a TGI (SN12C renal) of 7.05 µM and a GI50 (MOLT-4 leukemia) of 930 nM. For the same compound, the TGI (MOLT-4 leukemia) was 7.6 µM, the GI50 (HOP-62 NSCLC) was 2200 nM and the TGI (HOP-62 NSCLC) was 7.63 µM. The GI50 (SF-539 CNS) was 2550 nM, the TGI (SF-539 CNS) was 6.77 µM and the GI50 (BT-549 breast) was 7.71 µM. The TGI (BT-549 breast) was 15.4 µM, the GI50 (U251 CNS) was 2780 nM and the TGI (U251 CNS) was 15.8 µM. For the same compound, the GI50 (HCT-116 colon) was 993 nM, the TGI (HCT-116 colon) was 5.6 µM and the GI50 (SNB-75 CNS) was 1040 nM. It also gave a TGI (SNB-75 CNS) of 6.11 µM, a GI50 (HT29 colon) of 1430 nM and a TGI (HT29 colon) of 14.1 µM. It also gave a GI50 (SF-295 CNS) of 1730 nM, a TGI (SF-295 CNS) of 5.74 µM and a GI50 (PC-3 prostate) of 2820 nM. For the same compound, the TGI (PC-3 prostate) was 21.5 µM, the GI50 (UACC-257 melanoma) was 2300 nM and the TGI (UACC-257 melanoma) was 9.79 µM. It also gave a GI50 (OVCAR-4 ovarian) of 5.79 µM, a TGI (OVCAR-4 ovarian) of over 29 µM and a GI50 (OVCAR-3 ovarian) of 3.06 µM. It also gave a TGI (OVCAR-3 ovarian) of 12.1 µM.
